Data set [1] addresses T1, C-X-C chemokine receptor type 2 (Homo sapiens, UniProt P25025).
T1 sequence (P25025 whole entry): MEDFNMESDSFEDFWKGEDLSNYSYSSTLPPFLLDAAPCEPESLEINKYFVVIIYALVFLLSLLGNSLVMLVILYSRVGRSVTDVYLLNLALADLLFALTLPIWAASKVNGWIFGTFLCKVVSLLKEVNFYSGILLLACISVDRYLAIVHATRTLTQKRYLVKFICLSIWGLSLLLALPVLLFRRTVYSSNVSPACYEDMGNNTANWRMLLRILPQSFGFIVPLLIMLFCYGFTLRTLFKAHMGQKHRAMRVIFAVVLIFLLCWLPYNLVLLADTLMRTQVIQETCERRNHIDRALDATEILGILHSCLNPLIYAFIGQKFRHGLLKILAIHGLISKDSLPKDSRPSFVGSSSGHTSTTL
Nature of the data set: Displacement of [125I]hCXCL8 from human CXCR2 receptor expressed in BaF3 cells. The class given is cell-based. In general terms: In a radioligand displacement assay an active substance lowers the binding of a labelled ligand.

Data set [2] addresses T2, C-X-C chemokine receptor type 1 (Homo sapiens, UniProt P25024).
T2 sequence (P25024 whole entry): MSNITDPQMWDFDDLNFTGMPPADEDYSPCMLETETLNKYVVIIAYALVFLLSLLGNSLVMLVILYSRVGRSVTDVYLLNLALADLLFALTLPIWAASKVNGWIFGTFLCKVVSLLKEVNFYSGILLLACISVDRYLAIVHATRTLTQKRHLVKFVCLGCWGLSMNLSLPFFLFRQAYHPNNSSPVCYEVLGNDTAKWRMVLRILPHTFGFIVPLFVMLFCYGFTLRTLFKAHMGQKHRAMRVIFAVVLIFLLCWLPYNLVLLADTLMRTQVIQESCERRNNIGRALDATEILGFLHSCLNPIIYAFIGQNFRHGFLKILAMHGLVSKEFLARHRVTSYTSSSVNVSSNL
Put plainly: Displacement of [125I]hCXCL8 from human CXCR1 receptor expressed in BaF3 cells. The class given is cell-based.

A short description of data set [3]: AUC (0-6h) in rat at 10 mg/kg, po. Conditions: plasma. On the set-up: time < 6 hr, dose 10 mg/kg, route oral. The class given is ADME, organism-based.
Data set [4] deals with Interleukin-8 receptors, CXCR1/CXCR2 (Homo sapiens) (UniProt P25025+P25024). Nature of the data set: Selectivity for CXCR2 over CXCR1. The class given is protein assay.
The target of data set [5] is T3, Interleukin-8 receptors, CXCR1/CXCR2 (Homo sapiens, UniProt P25025+P25024).
T3 sequence (P25025 whole entry): T1 sequence (P25025 whole entry)
T3 sequence (P25024 whole entry): T2 sequence (P25024 whole entry)
Put plainly: Inhibition of CXCL8-induced human neutrophil chemotaxis. The format is functional.

Data set [6] addresses T4, C-X-C chemokine receptor type 1 (Homo sapiens) (UniProt P25024).
T4 sequence (whole entry): T2 sequence (P25024 whole entry)
Put plainly: Displacement of [125I]hCXCL8 from human CXCR1 receptor expressed in BaF3 cells at >10000 nM. The format is cell-based.

Data set [7] concerns the target T5, C5a anaphylatoxin chemotactic receptor 1 (Homo sapiens) (UniProt P21730).
T5 sequence (whole entry): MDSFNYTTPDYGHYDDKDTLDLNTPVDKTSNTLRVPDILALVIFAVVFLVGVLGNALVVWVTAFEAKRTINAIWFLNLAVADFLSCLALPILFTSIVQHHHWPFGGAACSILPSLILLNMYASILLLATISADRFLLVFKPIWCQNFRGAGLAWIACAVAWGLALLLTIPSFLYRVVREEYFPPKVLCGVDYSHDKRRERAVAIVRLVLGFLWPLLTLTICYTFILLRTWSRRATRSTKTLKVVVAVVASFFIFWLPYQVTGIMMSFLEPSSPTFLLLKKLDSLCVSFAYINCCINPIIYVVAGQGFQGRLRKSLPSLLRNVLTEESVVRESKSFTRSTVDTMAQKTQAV
Nature of the data set: Inhibition of C5a-induced human neutrophil chemotaxis. The format is functional.

Data set [8] deals with T6, fMet-Leu-Phe receptor (Homo sapiens) (UniProt P21462).
T6 sequence (whole entry): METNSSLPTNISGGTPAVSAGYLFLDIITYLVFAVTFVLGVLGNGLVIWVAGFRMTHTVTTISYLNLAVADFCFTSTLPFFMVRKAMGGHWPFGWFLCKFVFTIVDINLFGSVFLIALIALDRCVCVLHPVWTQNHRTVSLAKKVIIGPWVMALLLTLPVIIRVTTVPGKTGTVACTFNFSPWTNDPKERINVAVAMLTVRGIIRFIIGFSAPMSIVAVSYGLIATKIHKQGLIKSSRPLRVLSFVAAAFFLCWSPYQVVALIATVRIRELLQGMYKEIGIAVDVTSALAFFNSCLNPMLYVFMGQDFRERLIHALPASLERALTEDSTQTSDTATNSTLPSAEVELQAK
Put plainly: Inhibition of fMLP-induced human neutrophil chemotaxis. The class given is functional.

The target of data set [9] is T7, C-X-C chemokine receptor type 3 (Homo sapiens) (UniProt P49682).
T7 sequence (whole entry): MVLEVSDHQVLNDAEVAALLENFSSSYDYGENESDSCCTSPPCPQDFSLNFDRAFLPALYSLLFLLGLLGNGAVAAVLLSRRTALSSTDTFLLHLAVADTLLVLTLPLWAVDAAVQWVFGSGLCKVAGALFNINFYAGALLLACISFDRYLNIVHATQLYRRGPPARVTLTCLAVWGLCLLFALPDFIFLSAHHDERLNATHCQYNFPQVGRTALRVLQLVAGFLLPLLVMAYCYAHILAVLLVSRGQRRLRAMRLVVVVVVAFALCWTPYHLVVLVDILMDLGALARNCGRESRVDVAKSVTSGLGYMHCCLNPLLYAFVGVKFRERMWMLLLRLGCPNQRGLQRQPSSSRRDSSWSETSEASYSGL
Put plainly: Inhibition of CXCR3 receptor at 2 to 20 uM.

Data set [10] addresses C-C chemokine receptor type 5 (Homo sapiens) (UniProt P51681). Nature of the data set: Inhibition of CCR5 receptor at 2 to 20 uM.

Each structure is given as a SMILES string. Activity calls are given as the source filed them. The rule behind the calls is not given here. Some results are limits rather than exact numbers.

Chain of C-C chemokine receptor type 5 (Homo sapiens) (P51681 whole entry, looked up): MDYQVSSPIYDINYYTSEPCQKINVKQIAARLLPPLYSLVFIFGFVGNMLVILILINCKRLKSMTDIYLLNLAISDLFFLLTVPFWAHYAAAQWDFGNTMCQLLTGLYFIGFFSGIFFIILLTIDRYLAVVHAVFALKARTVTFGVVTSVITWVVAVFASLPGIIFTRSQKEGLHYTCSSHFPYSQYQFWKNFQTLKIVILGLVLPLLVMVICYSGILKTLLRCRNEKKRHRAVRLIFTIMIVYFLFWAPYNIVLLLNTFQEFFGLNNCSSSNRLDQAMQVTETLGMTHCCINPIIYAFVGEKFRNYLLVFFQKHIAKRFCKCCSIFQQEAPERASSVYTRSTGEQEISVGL

Regarding `Cc1ccc([C@@H](C)Nc2c(Nc3cccc(C(=O)N(C)C)c3O)c(=O)c2=O)o1`, the half-maximal inhibitory concentration (IC50) – broadly, the concentration that gives 50% inhibition – is 5.4 nM in [1], 775 nM in [2] and 251 nM in data set [5]. In data set [3], the AUC(0-t) (commonly the area under the concentration-time curve up to a stated or last time point) at 6 h came to 34 µM·h. The Ratio IC50 in [4] is greater than 100.

As for `C[C@H](Nc1c(Nc2cccc(C(=O)N(C)C)c2O)c(=O)c1=O)c1ccccc1`, in [6], the result was inactive.

Turning to `CC[C@@H](Nc1c(Nc2cccc(C(=O)N(C)C)c2O)c(=O)c1=O)c1ccc(C)o1` [NAVARIXIN ANHYDROUS], the result in data set [7] and in [8] was inactive. The molecule further displayed an AUC(0-t) at 6 h in [3] of 49 µM·h. The inhibition in data set [9] and in data set [10] was less than 15% throughout.

Consider `CN(C)C(=O)c1cccc(Nc2c(NCc3ccccc3)c(=O)c2=O)c1O`, for which the outcome in data set [6] was inactive. This molecule yielded a concentration for half-maximal inhibition (IC50) in data set [1] of 236 nM.

On to `CC[C@H](Nc1c(Nc2cccc(C(=O)N(C)C)c2O)c(=O)c1=O)c1ccccc1`, for which, in [6], the outcome was inactive. In addition, in [1], the half-inhibitory concentration (IC50) stood at 234 nM. Also, the AUC(0-t) at 6 h in data set [3] came out at 1 µM·h.

As to `CC[C@@H](Nc1c(Nc2cccc(C(=O)N(C)C)c2O)c(=O)c1=O)c1ccc2c(c1)OCO2`, the results for the IC50 in data set [1] and in [2] were 5 nM and 145 nM, respectively. In addition, the AUC(0-t) at 6 h in [3] came out at 31.7 µM·h.

Take `Cc1ccc([C@H](Nc2c(Nc3cccc(C(=O)N(C)C)c3O)c(=O)c2=O)C(C)C)o1`: the IC50 in [1] was 6.2 nM; in data set [2], 34 nM. In addition, in data set [3], the area under the curve AUC(0-t) at 6 h came out at 3.2 µM·h.

`Cc1ccc([C@H](Nc2c(Nc3cccc(C(=O)N(C)C)c3O)c(=O)c2=O)C(C)(C)C)o1`: the results for the 50% inhibitory concentration (IC50) in data set [1] and in [2] were 3.8 nM and 11 nM, respectively. The same molecule yielded an AUC(0-t) at 6 h in data set [3] of 2.6 µM·h.

`CC[C@@H](Nc1c(Nc2cccc(C(=O)N(C)C)c2O)c(=O)c1=O)c1cccc(F)c1`: the IC50 stood at 4.9 nM in data set [1] and 197 nM in data set [2]. In addition, in [3], the AUC(0-t) at 6 h worked out at 18.3 µM·h.

In the case of `CC[C@@H](Nc1c(Nc2cccc(C(=O)N(C)C)c2O)c(=O)c1=O)c1ccco1`, the IC50 came out at 3.8 nM in [1] and 26 nM in data set [2]. Also, in data set [3], the AUC(0-t) at 6 h came to 1.4 µM·h.

`CCC(CC)Nc1c(Nc2cccc(C(=O)N(C)C)c2O)c(=O)c1=O` registered a concentration for half-maximal inhibition (IC50) in [2] of 910 nM. In data set [3], this molecule showed an AUC(0-t) at 6 h of 6.4 µM·h.

With `CC[C@@H](Nc1c(Nc2cccc(C(=O)N(C)C)c2O)c(=O)c1=O)c1cccs1`, the IC50 in data set [1] worked out at 6 nM; in data set [2] it was 81 nM. The molecule further displayed an AUC(0-t) at 6 h in [3] of 2.5 µM·h.

Consider `CC[C@@H](Nc1c(Nc2cccc(C(=O)N(C)C)c2O)c(=O)c1=O)c1ccc(C)s1`, for which the figures for the IC50 in [1] and in [2] were 5.3 nM and 235 nM, respectively. In [3], this molecule yielded an AUC(0-t) at 6 h of 14.1 µM·h.

With `Cc1ccc([C@H](Nc2c(Nc3cccc(C(=O)N(C)C)c3O)c(=O)c2=O)C2CC2)o1`, the values for the IC50 in data set [1] and in data set [2] were 3.6 nM and 55 nM, respectively. The same molecule gave an AUC(0-t) at 6 h in data set [3] of 1.4 µM·h.

Turning to `CC[C@@H](Nc1c(Nc2cccc(C(=O)N(C)C)c2O)c(=O)c1=O)c1ccccc1`, the IC50 in [1] is 6.8 nM; in data set [2], 254 nM; in data set [5], 398 nM. In [3], the area under the curve AUC(0-t) at 6 h came out at 17.4 µM·h.

Take `C[C@@H](Nc1c(Nc2cccc(C(=O)N(C)C)c2O)c(=O)c1=O)c1ccccc1`: the IC50 in [2] was found to be 3060 nM.
